Results reported in patent US12568972B2, “Pyridazinol compounds and derivatives, preparation methods, herbicidal compositions and applications thereof” (Qingdao Kingagroot Chemical Compound Co., Ltd., priority 2018, dated 2026).

Each compound was assayed on Veronica polita (assay: Post-emergence test, weed control effect). Details: Dose 3000 g/ha, after 3 weeks.
Assay type: in vivo
How it was run: (§1)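 Scores use a 0 (no effect) to 10 (dead) scale of fresh-weight inhibition, assessed 3 weeks after spraying. Treatment was at the 2-3 leaf stage, 2-3 weeks post-sowing, using acetone/Tween-80/water solutions with 80% vegetable oil methyl ester synergist at 1500 g/ha.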

Q: For `Oc1cc(C(F)(F)F)nnc1-c1cncc(F)c1` [Compound 963], which “weed control effect (activity level), Veronica polita” value is on record?
A: 10

Q: How did the “weed control effect (activity level), Veronica polita” value turn out when `N#Cc1ccncc1-c1nnc(C(F)(F)F)cc1O` [Compound 980] was run?
A: 10

Q: How did the “weed control effect (activity level), Veronica polita” value turn out when `Cn1nc(Br)cc1-c1nnc(C(F)(F)F)cc1O` [Compound 777] was run?
A: 10

Q: How did the “weed control effect (activity level), Veronica polita” value turn out when `CC(=O)n1nccc1-c1nnc(C(F)(F)F)cc1O` [Compound 834] was run?
A: 10

Q: `O=C(CCCBr)Oc1cc(C(F)(F)F)nnc1-c1ccc(F)c(F)c1` [Compound 1-23] was tested. Which “weed control effect, Veronica polita (activity level)” value (shortened to “weed control effect, Veronica polita”) did it give?
A: 10

Q: For `Cc1ncoc1C(=O)Oc1cc(C(F)(F)F)nnc1-c1ccc(F)c(F)c1` [Compound 1-108], which “weed control effect, Veronica polita” value is on record?
A: 10

Q: How did the “weed control effect (activity level), Veronica polita” value turn out when `Oc1cc(C(F)(F)F)nnc1-c1cncc(I)c1` [Compound 971] was run?
A: 10

Q: `Oc1cc(C(F)(F)F)nnc1-c1cnc(Cl)cc1Cl` [Compound 995] was tested. Which “weed control effect (activity level), Veronica polita” value did it give?
A: 10

Q: `CCCC(C)CC/C(C)=N\Oc1cc(C(F)(F)F)nnc1-c1ccccc1` (stereo not drawn) [Compound 1-181] was tested. Which “weed control effect, Veronica polita” value did it give?
A: 10

Q: `Oc1cc(C(F)(F)F)nnc1-c1ccc(F)cc1C(F)(F)F` [Compound 764] was tested. Which “weed control effect (activity level), Veronica polita” value did it give?
A: 10

Q: With `Fc1ccc(-c2nnc(C(F)(F)F)cc2OCc2ccccc2)cc1F` [Compound 1-210] as the compound, how does the “weed control effect, Veronica polita” value read?
A: 10

Q: `Cc1cc(C)c(-c2nnc(C(F)(F)F)cc2O)o1` [Compound 439] was tested. Which “weed control effect (activity level), Veronica polita” value did it give?
A: 10

Q: For `CCCCOC(=S)Oc1cc(C(F)(F)F)nnc1-c1ccc(F)c(F)c1` [Compound 1-157], which “weed control effect, Veronica polita” value is on record?
A: 10

Q: With `CCCCCOC(=O)Oc1cc(C(F)(F)F)nnc1-c1ccc(F)c(F)c1` [Compound 1-31] as the compound, how does the “weed control effect, Veronica polita” value read?
A: 10

Q: Which “weed control effect (activity level), Veronica polita” value does the source give for `Oc1cc(C(F)(F)F)nnc1-c1ccc(Cl)nc1F` [Compound 997] here?
A: 10

Q: How did the “weed control effect, Veronica polita” value turn out when `NC(=O)c1ccc(S(=O)(=O)Oc2cc(C(F)(F)F)nnc2-c2ccc(C(F)(F)F)cc2)cc1` [Compound 1-141] was run?
A: 10

Q: Which “weed control effect, Veronica polita” value does the source give for `Cc1ccc(S(=O)(=O)Oc2cc(C(F)(F)F)nnc2-c2ccc(F)c(F)c2)cc1` [Compound 1-127] here?
A: 10

Q: For `CC(C)CC(CC(C)C)=NOc1cc(C(F)(F)F)nnc1-c1ccc(Cl)cc1` [Compound 1-180], which “weed control effect, Veronica polita” value is on record?
A: 10

These compounds were tested on Chenopodiaceae (assay: Post-emergence test, weed control effect). Details: Dose 3000 g/ha, after 3 weeks.
Assay type: in vivo
How it was run: as §1

Q: With `Oc1cc(C(F)(F)F)nnc1-c1cncc(F)c1` [Compound 963] as the compound, how does the “weed control effect (activity level), Chenopodiaceae” value read?
A: 10

Q: With `N#Cc1ccncc1-c1nnc(C(F)(F)F)cc1O` [Compound 980] as the compound, how does the “weed control effect (activity level), Chenopodiaceae” value read?
A: 10

Q: For `Cn1nc(Br)cc1-c1nnc(C(F)(F)F)cc1O` [Compound 777], which “weed control effect (activity level), Chenopodiaceae” value is on record?
A: 10

Q: How did the “weed control effect (activity level), Chenopodiaceae” value turn out when `CC(=O)n1nccc1-c1nnc(C(F)(F)F)cc1O` [Compound 834] was run?
A: 10

Q: With `O=C(CCCBr)Oc1cc(C(F)(F)F)nnc1-c1ccc(F)c(F)c1` [Compound 1-23] as the compound, how does the “weed control effect, Chenopodiaceae (activity level)” value (“weed control effect, Chenopodiaceae” below) read?
A: 10

Q: `Cc1ncoc1C(=O)Oc1cc(C(F)(F)F)nnc1-c1ccc(F)c(F)c1` [Compound 1-108] was tested. Which “weed control effect, Chenopodiaceae” value did it give?
A: 10

Q: How did the “weed control effect (activity level), Chenopodiaceae” value turn out when `Oc1cc(C(F)(F)F)nnc1-c1cncc(I)c1` [Compound 971] was run?
A: 10

Q: How did the “weed control effect (activity level), Chenopodiaceae” value turn out when `Oc1cc(C(F)(F)F)nnc1-c1cnc(Cl)cc1Cl` [Compound 995] was run?
A: 10

Q: With `CCCC(C)CC/C(C)=N\Oc1cc(C(F)(F)F)nnc1-c1ccccc1` (stereo not drawn) [Compound 1-181] as the compound, how does the “weed control effect, Chenopodiaceae” value read?
A: 10

Q: `Oc1cc(C(F)(F)F)nnc1-c1ccc(F)cc1C(F)(F)F` [Compound 764] was tested. Which “weed control effect (activity level), Chenopodiaceae” value did it give?
A: 10

Q: With `Fc1ccc(-c2nnc(C(F)(F)F)cc2OCc2ccccc2)cc1F` [Compound 1-210] as the compound, how does the “weed control effect, Chenopodiaceae” value read?
A: 10

Q: How did the “weed control effect (activity level), Chenopodiaceae” value turn out when `Cc1cc(C)c(-c2nnc(C(F)(F)F)cc2O)o1` [Compound 439] was run?
A: 10

Q: Which “weed control effect, Chenopodiaceae” value does the source give for `CCCCOC(=S)Oc1cc(C(F)(F)F)nnc1-c1ccc(F)c(F)c1` [Compound 1-157] here?
A: 10

Q: With `CCCCCOC(=O)Oc1cc(C(F)(F)F)nnc1-c1ccc(F)c(F)c1` [Compound 1-31] as the compound, how does the “weed control effect, Chenopodiaceae” value read?
A: 10

Q: Which “weed control effect (activity level), Chenopodiaceae” value does the source give for `Oc1cc(C(F)(F)F)nnc1-c1ccc(Cl)nc1F` [Compound 997] here?
A: 10

Q: How did the “weed control effect, Chenopodiaceae” value turn out when `NC(=O)c1ccc(S(=O)(=O)Oc2cc(C(F)(F)F)nnc2-c2ccc(C(F)(F)F)cc2)cc1` [Compound 1-141] was run?
A: 10

Q: For `Cc1ccc(S(=O)(=O)Oc2cc(C(F)(F)F)nnc2-c2ccc(F)c(F)c2)cc1` [Compound 1-127], which “weed control effect, Chenopodiaceae” value is on record?
A: 10

Q: `CC(C)CC(CC(C)C)=NOc1cc(C(F)(F)F)nnc1-c1ccc(Cl)cc1` [Compound 1-180] was tested. Which “weed control effect, Chenopodiaceae” value did it give?
A: 10

The compounds below were run on Rorippa indica (assay: Post-emergence test, weed control effect). Details: Dose 3000 g/ha, after 3 weeks.
Assay type: in vivo
How it was run: as §1

Q: For `Oc1cc(C(F)(F)F)nnc1-c1cncc(F)c1` [Compound 963], which “weed control effect (activity level), Rorippa indica” value is on record?
A: 10

Q: With `N#Cc1ccncc1-c1nnc(C(F)(F)F)cc1O` [Compound 980] as the compound, how does the “weed control effect (activity level), Rorippa indica” value read?
A: 10

Q: For `Cn1nc(Br)cc1-c1nnc(C(F)(F)F)cc1O` [Compound 777], which “weed control effect (activity level), Rorippa indica” value is on record?
A: 10

Q: `CC(=O)n1nccc1-c1nnc(C(F)(F)F)cc1O` [Compound 834] was tested. Which “weed control effect (activity level), Rorippa indica” value did it give?
A: 10

Q: For `O=C(CCCBr)Oc1cc(C(F)(F)F)nnc1-c1ccc(F)c(F)c1` [Compound 1-23], which “weed control effect, Rorippa indica (activity level)” value (“weed control effect, Rorippa indica” for short) is on record?
A: 10

Q: For `Cc1ncoc1C(=O)Oc1cc(C(F)(F)F)nnc1-c1ccc(F)c(F)c1` [Compound 1-108], which “weed control effect, Rorippa indica” value is on record?
A: 10

Q: With `Oc1cc(C(F)(F)F)nnc1-c1cncc(I)c1` [Compound 971] as the compound, how does the “weed control effect (activity level), Rorippa indica” value read?
A: 10

Q: For `Oc1cc(C(F)(F)F)nnc1-c1cnc(Cl)cc1Cl` [Compound 995], which “weed control effect (activity level), Rorippa indica” value is on record?
A: 10

Q: `CCCC(C)CC/C(C)=N\Oc1cc(C(F)(F)F)nnc1-c1ccccc1` (stereo not drawn) [Compound 1-181] was tested. Which “weed control effect, Rorippa indica” value did it give?
A: 10

Q: How did the “weed control effect (activity level), Rorippa indica” value turn out when `Oc1cc(C(F)(F)F)nnc1-c1ccc(F)cc1C(F)(F)F` [Compound 764] was run?
A: 10

Q: How did the “weed control effect, Rorippa indica” value turn out when `Fc1ccc(-c2nnc(C(F)(F)F)cc2OCc2ccccc2)cc1F` [Compound 1-210] was run?
A: 10

Q: Which “weed control effect (activity level), Rorippa indica” value does the source give for `Cc1cc(C)c(-c2nnc(C(F)(F)F)cc2O)o1` [Compound 439] here?
A: 10

Q: For `CCCCOC(=S)Oc1cc(C(F)(F)F)nnc1-c1ccc(F)c(F)c1` [Compound 1-157], which “weed control effect, Rorippa indica” value is on record?
A: 10

Q: Which “weed control effect, Rorippa indica” value does the source give for `CCCCCOC(=O)Oc1cc(C(F)(F)F)nnc1-c1ccc(F)c(F)c1` [Compound 1-31] here?
A: 10

Q: How did the “weed control effect (activity level), Rorippa indica” value turn out when `Oc1cc(C(F)(F)F)nnc1-c1ccc(Cl)nc1F` [Compound 997] was run?
A: 10

Q: With `NC(=O)c1ccc(S(=O)(=O)Oc2cc(C(F)(F)F)nnc2-c2ccc(C(F)(F)F)cc2)cc1` [Compound 1-141] as the compound, how does the “weed control effect, Rorippa indica” value read?
A: 10

Q: With `Cc1ccc(S(=O)(=O)Oc2cc(C(F)(F)F)nnc2-c2ccc(F)c(F)c2)cc1` [Compound 1-127] as the compound, how does the “weed control effect, Rorippa indica” value read?
A: 10

Q: With `CC(C)CC(CC(C)C)=NOc1cc(C(F)(F)F)nnc1-c1ccc(Cl)cc1` [Compound 1-180] as the compound, how does the “weed control effect, Rorippa indica” value read?
A: 10

These compounds were tested on Amaranthus retroflexus (assay: Post-emergence test, weed control effect). Details: Dose 3000 g/ha, after 3 weeks.
Assay type: in vivo
How it was run: as §1

Q: How did the “weed control effect (activity level), Amaranthus retroflexus” value turn out when `Oc1cc(C(F)(F)F)nnc1-c1cncc(F)c1` [Compound 963] was run?
A: 10

Q: How did the “weed control effect (activity level), Amaranthus retroflexus” value turn out when `N#Cc1ccncc1-c1nnc(C(F)(F)F)cc1O` [Compound 980] was run?
A: 10

Q: `Cn1nc(Br)cc1-c1nnc(C(F)(F)F)cc1O` [Compound 777] was tested. Which “weed control effect (activity level), Amaranthus retroflexus” value did it give?
A: 10

Q: With `CC(=O)n1nccc1-c1nnc(C(F)(F)F)cc1O` [Compound 834] as the compound, how does the “weed control effect (activity level), Amaranthus retroflexus” value read?
A: 10

Q: For `O=C(CCCBr)Oc1cc(C(F)(F)F)nnc1-c1ccc(F)c(F)c1` [Compound 1-23], which “weed control effect, Amaranthus retroflexus (activity level)” value is on record?
A: 10

Q: Which “weed control effect, Amaranthus retroflexus (activity level)” value does the source give for `Cc1ncoc1C(=O)Oc1cc(C(F)(F)F)nnc1-c1ccc(F)c(F)c1` [Compound 1-108] here?
A: 10

Q: With `Oc1cc(C(F)(F)F)nnc1-c1cncc(I)c1` [Compound 971] as the compound, how does the “weed control effect (activity level), Amaranthus retroflexus” value read?
A: 10

Q: For `Oc1cc(C(F)(F)F)nnc1-c1cnc(Cl)cc1Cl` [Compound 995], which “weed control effect (activity level), Amaranthus retroflexus” value is on record?
A: 10

Q: How did the “weed control effect, Amaranthus retroflexus (activity level)” value turn out when `CCCC(C)CC/C(C)=N\Oc1cc(C(F)(F)F)nnc1-c1ccccc1` (stereo not drawn) [Compound 1-181] was run?
A: 10

Q: With `Oc1cc(C(F)(F)F)nnc1-c1ccc(F)cc1C(F)(F)F` [Compound 764] as the compound, how does the “weed control effect (activity level), Amaranthus retroflexus” value read?
A: 10

Q: For `Fc1ccc(-c2nnc(C(F)(F)F)cc2OCc2ccccc2)cc1F` [Compound 1-210], which “weed control effect, Amaranthus retroflexus (activity level)” value is on record?
A: 10

Q: Which “weed control effect (activity level), Amaranthus retroflexus” value does the source give for `Cc1cc(C)c(-c2nnc(C(F)(F)F)cc2O)o1` [Compound 439] here?
A: 10

Q: For `CCCCOC(=S)Oc1cc(C(F)(F)F)nnc1-c1ccc(F)c(F)c1` [Compound 1-157], which “weed control effect, Amaranthus retroflexus (activity level)” value is on record?
A: 10

Q: How did the “weed control effect, Amaranthus retroflexus (activity level)” value turn out when `CCCCCOC(=O)Oc1cc(C(F)(F)F)nnc1-c1ccc(F)c(F)c1` [Compound 1-31] was run?
A: 10

Q: With `Oc1cc(C(F)(F)F)nnc1-c1ccc(Cl)nc1F` [Compound 997] as the compound, how does the “weed control effect (activity level), Amaranthus retroflexus” value read?
A: 10

Q: How did the “weed control effect, Amaranthus retroflexus (activity level)” value turn out when `NC(=O)c1ccc(S(=O)(=O)Oc2cc(C(F)(F)F)nnc2-c2ccc(C(F)(F)F)cc2)cc1` [Compound 1-141] was run?
A: 10

Q: Which “weed control effect, Amaranthus retroflexus (activity level)” value does the source give for `Cc1ccc(S(=O)(=O)Oc2cc(C(F)(F)F)nnc2-c2ccc(F)c(F)c2)cc1` [Compound 1-127] here?
A: 10

Q: With `CC(C)CC(CC(C)C)=NOc1cc(C(F)(F)F)nnc1-c1ccc(Cl)cc1` [Compound 1-180] as the compound, how does the “weed control effect, Amaranthus retroflexus (activity level)” value read?
A: 10
